Results from patent US20260083865A1, “PROSTATE SPECIFIC MEMBRANE ANTIGEN (PSMA) LIGANDS AND USE THEREOF” (priority 2022, published 2026).
Read-outs that look alike come from different tables or passages of the source. Numbered stars: 1 amine (or outer) side, 2 acyl side, 3 side chain; on linkers, the order of the positions; unused ones are H or OH. Bridge positions count the residues as written; N and C are the ends. Square brackets hold non-standard residues; d marks the D form. Side chains are listed from the residue outwards. Peptide text beside a SMILES is read from it. * marks the point of attachment. TtdsdLys(DOTA)NH2 = NC(=O)[C@@H](CCCCNC(=O)CN1CCN(CC(=O)O)CCN(CC(=O)O)CCN(CC(=O)O)CC1)NC(=O)CCC(=O)NCCCOCCOCCOCCCN*; DOTA = O=C(O)CN1CCN(CC(=O)O)CCN(CC(=O)*)CCN(CC(=O)O)CC1; Phe(4-Cl) = N[C@@H](Cc1ccc(Cl)cc1)C(=O)O; Propanoyl(3-SO2NH2) = NS(=O)(=O)CCC(=O)*; Pro(4,4-F2) = O=C(O)[C@@H]1CC(F)(F)CN1; Ethylenediamine = C(CN[*:2])N[*:1]; d(αMeD) = C[C@@](N)(CC(=O)O)C(=O)O; hArg = N=C(N)NCCCC[C@H](N)C(=O)O; X1 = O=C(CC1CCN([*:1])CC1)[*:2]; Tle = CC(C)(C)[C@H](N)C(=O)O; 4Amb = NCc1ccc(C(=O)O)cc1; 4Abz = Nc1ccc(C(=O)O)cc1; Aib = CC(C)(N)C(=O)O; βAla = NCCC(=O)O

Columns and labels:
[1] = target: T1, PSMA-expressing C4-2 cells (Homo sapiens, UniProt Q04609); test: FACS binding assay (competition with 50 nM PSM-0183)
T1 construct: PSMA-expressing C4-2 cells (ATCC, Cat. No. CRL-3314) were cultured in RPMI-1640; host or cells: C4-2 cells
T1 sequence (Q04609 whole entry): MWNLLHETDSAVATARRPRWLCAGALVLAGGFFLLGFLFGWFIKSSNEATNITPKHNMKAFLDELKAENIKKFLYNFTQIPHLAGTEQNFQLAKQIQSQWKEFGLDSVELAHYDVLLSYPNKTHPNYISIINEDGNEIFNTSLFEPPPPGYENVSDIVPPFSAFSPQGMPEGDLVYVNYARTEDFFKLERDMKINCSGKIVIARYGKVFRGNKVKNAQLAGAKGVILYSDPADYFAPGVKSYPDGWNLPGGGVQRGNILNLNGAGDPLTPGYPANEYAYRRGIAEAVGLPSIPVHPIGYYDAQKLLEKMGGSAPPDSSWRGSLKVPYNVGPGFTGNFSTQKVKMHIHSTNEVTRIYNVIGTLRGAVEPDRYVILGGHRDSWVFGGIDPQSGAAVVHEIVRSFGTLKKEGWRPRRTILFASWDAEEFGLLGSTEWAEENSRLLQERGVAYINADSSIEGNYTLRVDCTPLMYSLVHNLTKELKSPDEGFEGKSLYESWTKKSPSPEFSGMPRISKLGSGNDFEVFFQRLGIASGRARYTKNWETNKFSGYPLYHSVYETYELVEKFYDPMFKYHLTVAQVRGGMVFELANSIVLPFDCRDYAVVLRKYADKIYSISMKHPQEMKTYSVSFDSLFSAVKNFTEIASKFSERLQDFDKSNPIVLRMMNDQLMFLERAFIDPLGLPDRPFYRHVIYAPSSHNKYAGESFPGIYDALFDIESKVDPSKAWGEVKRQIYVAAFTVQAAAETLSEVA
Method in brief: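 C4-2 cells were incubated 1 h at 4 °C with 50 nM AF488-labelled peptide PSM-0183 plus increasing test compound concentrations, then washed twice in ice-cold buffer. Median fluorescence in the AF488 channel was read by flow cytometry. IC50/pIC50 was derived by 4PL fitting of MFI versus concentration.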

[2] = target: T2, Fc-fusion protein of human PSMA (hPSMA-Fc) (Homo sapiens, UniProt Q04609); test: Surface plasmon resonance assay (Biacore T200, single cycle kinetic); type: binding
T2 construct: purchased Acro Biosystems PSA-H5264
T2 sequence (Q04609 44-750 limits assumed): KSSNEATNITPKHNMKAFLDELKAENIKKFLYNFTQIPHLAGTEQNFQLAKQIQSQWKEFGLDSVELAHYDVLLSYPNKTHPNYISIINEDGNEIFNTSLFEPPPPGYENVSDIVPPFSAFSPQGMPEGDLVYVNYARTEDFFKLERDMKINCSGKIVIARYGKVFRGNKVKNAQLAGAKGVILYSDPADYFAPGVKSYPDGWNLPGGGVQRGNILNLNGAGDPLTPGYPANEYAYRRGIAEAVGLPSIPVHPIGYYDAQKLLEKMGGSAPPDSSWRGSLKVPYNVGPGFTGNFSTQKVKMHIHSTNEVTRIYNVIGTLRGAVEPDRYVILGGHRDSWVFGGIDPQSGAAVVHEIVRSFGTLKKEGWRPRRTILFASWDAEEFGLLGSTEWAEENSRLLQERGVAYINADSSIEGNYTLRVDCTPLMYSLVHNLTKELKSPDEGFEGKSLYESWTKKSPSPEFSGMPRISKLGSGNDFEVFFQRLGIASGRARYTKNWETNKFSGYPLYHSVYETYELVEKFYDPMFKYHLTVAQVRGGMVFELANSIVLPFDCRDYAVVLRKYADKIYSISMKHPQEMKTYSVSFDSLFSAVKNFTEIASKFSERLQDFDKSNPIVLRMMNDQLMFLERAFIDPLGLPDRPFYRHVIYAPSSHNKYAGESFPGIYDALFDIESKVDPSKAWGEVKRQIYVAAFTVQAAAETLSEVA
Method in brief: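 hPSMA-Fc was captured (~1000 RU) on an Fc-binding-peptide CM5 chip, and compounds were run in single cycle kinetic mode at 25° C in HBST with 0.1% DMSO. Double-blank-corrected sensorgrams were fitted to a 1:1 Langmuir model to give KD, reported as pKD.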

[3] = FACS binding, C4-2 cells, competition with 50 nM PSM-0183, category, read-out: pIC50 [C4-2] CAT (converted)
[4] = SPR, hPSMA-Fc, single cycle kinetic, 25° C., category, read-out: pKD CAT (converted)

Row | IC50 [1, 3] | Kd [2, 4] | Compound | IC50 [1] | Kd [2]
1 | < 0.2 µM | < 0.0126 µM | CC(C)(NC(=O)c1ccc(CNC(=O)CN2CCN(CC(=O)O)CCN(CC(=O)O)CCN(CC(=O)O)CC2)cc1)C(=O)N[C@@H](Cc1ccccc1)C(=O)N[C@H]1CSSC[C@@H](C(=O)N[C@H](C(=O)NCCN)C(C)(C)C)NC(=O)[C@H](CC(N)=O)NC(=O)C(C)(C)NC(=O)[C@H](CCCNC(=N)N)NC(=O)[C@H](CCCCN)NC1=O [PSM-0221, DOTA-Pamb-Aib-Phe-[Cys-Lys-Arg-Aib-Asn-Cys]-Tle-en] ({DOTA-4Amb}-[Aib]FCKR[Aib]NC[Tle]-Ethylenediamine; disulfide 3-8) |  | 
2 | < 0.2 µM | < 0.0126 µM | C[C@@H](O)[C@H](NC(=O)CN1CCN(CC(=O)O)CCN(CC(=O)O)CCN(CC(=O)O)CC1)C(=O)NC(C)(C)C(=O)N[C@@H](Cc1ccc(Cl)cc1)C(=O)N[C@H]1CSSC[C@@H](C(=O)N[C@H](C(=O)NCCN)C(C)(C)C)NC(=O)[C@H](CC(N)=O)NC(=O)C(C)(C)NC(=O)[C@H](CCCNC(=N)N)NC(=O)[C@H](CCCCN)NC1=O [PSM-0222, DOTA-Thr-Aib-Pcf-[Cys-Lys-Arg-Aib-Asn-Cys]-Tle-en] ({DOTA}-T[Aib][Phe(4-Cl)]CKR[Aib]NC[Tle]-Ethylenediamine; disulfide 4-9) |  | 
3 | 0.2 to 1.26 µM | 0.0126 to 0.126 µM | CC(=O)NC(=N)NCCC[C@@H]1NC(=O)[C@H](CCCCN)NC(=O)[C@@H](NC(=O)[C@H](Cc2ccc(Cl)cc2)NC(=O)C(C)(C)NC(=O)CC2CCN(C(=O)CN3CCN(CC(=O)O)CCN(CC(=O)O)CCN(CC(=O)O)CC3)CC2)CSSC[C@@H](C(=O)N[C@H](C(=O)N[C@H](C(N)=O)[C@@H](C)O)C(C)(C)C)NC(=O)[C@H](CC(N)=O)NC(=O)C(C)(C)NC1=O [PSM-0223, DOTA-Cmp-Aib-Pcf-[Cys-Lys-Arg(Ac)-Aib-Asn-Cys]-Tle-Thr-NH2] ({DOTA}-[X1][Aib][Phe(4-Cl)]CKR(Ac)[Aib]NC[Tle]T-NH2; disulfide 4-9) |  | 
4 | < 0.2 µM | < 0.0126 µM | C[C@@H](O)[C@H](NC(=O)[C@@H](NC(=O)[C@@H]1CSSC[C@H](NC(=O)[C@H](Cc2ccccc2)NC(=O)C(C)(C)NC(=O)CCS(N)(=O)=O)C(=O)N[C@@H](CCCCN)C(=O)N[C@@H](CCCNC(=N)N)C(=O)NC(C)(C)C(=O)N[C@@H](CC(N)=O)C(=O)N1)C(C)(C)C)C(N)=O [PSM-0224, SaPr-Aib-Phe-[Cys-Lys-Arg-Aib-Asn-Cys]-Tle-Thr-NH2] ({Propanoyl(3-SO2NH2)}-[Aib]FCKR[Aib]NC[Tle]T-NH2; disulfide 3-8) |  | 
5 | < 0.2 µM | < 0.0126 µM | C[C@@H](O)[C@H](NC(=O)[C@@H](NC(=O)[C@@H]1CSSC[C@H](NC(=O)[C@H](Cc2ccc(Cl)cc2)NC(=O)C(C)(C)NC(=O)[C@@H](NC(=O)CC2CCN(C(=O)CN3CCN(CC(=O)O)CCN(CC(=O)O)CCN(CC(=O)O)CC3)CC2)[C@@H](C)O)C(=O)N[C@@H](CCCCNC(=N)N)C(=O)N[C@@H](CCCNC(=N)N)C(=O)NC(C)(C)C(=O)N[C@@H](CC(N)=O)C(=O)N1)C(C)(C)C)C(N)=O [PSM-0225, DOTA-Cmp-Thr-Aib-Pcf-[Cys-Har-Arg-Aib-Asn-Cys]-Tle-Thr-NH2] ({DOTA}-[X1]T[Aib][Phe(4-Cl)]C[hArg]R[Aib]NC[Tle]T-NH2; disulfide 5-10) |  | 
6 | < 0.2 µM | < 0.0126 µM | C[C@@H](O)[C@H](NC(=O)[C@@H](NC(=O)[C@@H]1CSSC[C@H](NC(=O)[C@H](Cc2ccc(Cl)cc2)NC(=O)C(C)(C)NC(=O)[C@@H](NC(=O)CC2CCN(C(=O)CN3CCN(CC(=O)O)CCN(CC(=O)O)CCN(CC(=O)O)CC3)CC2)[C@@H](C)O)C(=O)N[C@@H](CCCCN)C(=O)N[C@@H](CCCNC(=N)N)C(=O)N[C@](C)(CC(=O)O)C(=O)N[C@@H](CC(N)=O)C(=O)N1)C(C)(C)C)C(N)=O [PSM-0227, DOTA-Cmp-Thr-Aib-Pcf-[Cys-Lys-Arg-amd-Asn-Cys]-Tle-Thr-NH2] ({DOTA}-[X1]T[Aib][Phe(4-Cl)]CKR[d(αMeD)]NC[Tle]T-NH2; disulfide 5-10) |  | 

Second part, the compound before the results:

Row | Compound | IC50 [1, 3] | Kd [2, 4] | IC50 [1] | Kd [2]
7 | C[C@@H](O)[C@H](NC(=O)[C@@H](NC(=O)[C@@H]1CSSC[C@H](NC(=O)[C@H](Cc2ccccc2)NC(=O)C(C)(C)NC(=O)[C@@H](NC(=O)CCNC(=O)CN2CCN(CC(=O)O)CCN(CC(=O)O)CCN(CC(=O)O)CC2)[C@@H](C)O)C(=O)N[C@@H](CCCCN)C(=O)N[C@@H](CCCNC(=N)N)C(=O)NC(C)(C)C(=O)N[C@@H](CC(N)=O)C(=O)N1)C(C)(C)C)C(N)=O [PSM-0209, DOTA-Bal-Thr-Aib-Phe-[Cys-Lys-Arg-Aib-Asn-Cys]-Tle-Thr-NH2] ({DOTA-βAla}-T[Aib]FCKR[Aib]NC[Tle]T-NH2; disulfide 4-9) | < 0.2 µM | < 0.0126 µM |  | 
8 | CC(=O)N[C@H](C(=O)NC(C)(C)C(=O)N[C@@H](Cc1ccccc1)C(=O)N[C@H]1CSSC[C@@H](C(=O)N[C@H](C(=O)N[C@H](C(=O)N[C@@H](CC(=O)O)C(N)=O)[C@@H](C)O)C(C)(C)C)NC(=O)[C@H](CC(N)=O)NC(=O)C(C)(C)NC(=O)[C@H](CCCNC(=N)N)NC(=O)[C@H](CCC(N)=O)NC1=O)[C@@H](C)O [PSM-0210, Ac-Thr-Aib-Phe-[Cys-Gln-Arg-Aib-Asn-Cys]-Tle-Thr-Asp-NH2] (Ac-T[Aib]FCQR[Aib]NC[Tle]TD-NH2; disulfide 4-9) | < 0.2 µM | 0.0126 to 0.126 µM |  | 
9 | CC(=O)N[C@H](C(=O)NC(C)(C)C(=O)N[C@@H](Cc1ccccc1)C(=O)N[C@H]1CSSC[C@@H](C(=O)N[C@H](C(=O)N[C@H](C(N)=O)[C@@H](C)O)C(C)(C)C)NC(=O)[C@H](CC(N)=O)NC(=O)[C@H](CCCCNC(=O)c2ccc(NC(=O)CN3CCN(CC(=O)O)CCN(CC(=O)O)CCN(CC(=O)O)CC3)cc2)NC(=O)[C@H](CCCNC(=N)N)NC(=O)[C@H](CCCCN)NC1=O)[C@@H](C)O [PSM-0211, Ac-Thr-Aib-Phe-[Cys-Lys-Arg-Lys(DOTA-Pab)-Asn-Cys]-Tle-Thr-NH2] (Ac-T[Aib]FCKRK([4Abz-DOTA])NC[Tle]T-NH2; disulfide 4-9) | < 0.2 µM | < 0.0126 µM |  | 
10 | CC(=O)N[C@H](C(=O)NC(C)(C)C(=O)N[C@@H](Cc1ccccc1)C(=O)N[C@H]1CSSC[C@@H](C(=O)N[C@H](C(=O)N[C@H](C(=O)N[C@@H](CC(=O)O)C(=O)NCCCOCCOCCOCCCNC(=O)CCC(=O)N[C@H](CCCCNC(=O)CN2CCN(CC(=O)O)CCN(CC(=O)O)CCN(CC(=O)O)CC2)C(N)=O)[C@@H](C)O)C(C)(C)C)NC(=O)[C@H](CC(N)=O)NC(=O)C(C)(C)NC(=O)[C@H](CCCNC(=N)N)NC(=O)[C@H](CCCCN)NC1=O)[C@@H](C)O [PSM-0212, Ac-Thr-Aib-Phe-[Cys-Lys-Arg-Aib-Asn-Cys]-Tle-Thr-Asp-Ttds-lys(DOTA)-NH2] (Ac-T[Aib]FCKR[Aib]NC[Tle]TD-{TtdsdLys(DOTA)NH2}; disulfide 4-9) | < 0.2 µM | < 0.0126 µM |  | 
11 | C[C@@H](O)[C@H](NC(=O)[C@@H](NC(=O)[C@@H]1CSSC[C@H](NC(=O)[C@H](Cc2ccc(Cl)cc2)NC(=O)C(C)(C)NC(=O)CCS(N)(=O)=O)C(=O)N[C@@H](CCCCN)C(=O)N[C@@H](CCCNC(=N)N)C(=O)NC(C)(C)C(=O)N[C@@H](CC(N)=O)C(=O)N1)C(C)(C)C)C(=O)N1CCC(CC(=O)N[C@H](CCCCNC(=O)CN2CCN(CC(=O)O)CCN(CC(=O)O)CCN(CC(=O)O)CC2)C(N)=O)CC1 [PSM-0215, SaPr-Aib-Pcf-[Cys-Lys-Arg-Aib-Asn-Cys]-Tle-Thr-Cmp-lys(DOTA)-NH2] ({Propanoyl(3-SO2NH2)}-[Aib][Phe(4-Cl)]CKR[Aib]NC[Tle]T[X1][dK](DOTA)-NH2; disulfide 3-8) | < 0.2 µM | 0.0126 to 0.126 µM |  | 
12 | C[C@@H](O)[C@H](NC(=O)CN1CCN(CC(=O)O)CCN(CC(=O)O)CCN(CC(=O)O)CC1)C(=O)NC(C)(C)C(=O)N[C@@H](Cc1ccc(Cl)cc1)C(=O)N[C@H]1CSSC[C@@H](C(=O)N[C@H](C(=O)NCCC(N)=O)C(C)(C)C)NC(=O)[C@H](CC(N)=O)NC(=O)C(C)(C)NC(=O)[C@H](CCCNC(=N)N)NC(=O)[C@H](CCCCN)NC1=O [PSM-0216, DOTA-Thr-Aib-Pcf-[Cys-Lys-Arg-Aib-Asn-Cys]-Tle-Bal-NH2] ({DOTA}-T[Aib][Phe(4-Cl)]CKR[Aib]NC[Tle][βAla]-NH2; disulfide 4-9) | < 0.2 µM | < 0.0126 µM |  | 
13 | CC(=O)N[C@H](C(=O)NC(C)(C)C(=O)N[C@@H](Cc1ccccc1)C(=O)N[C@H]1CSSC[C@@H](C(=O)N[C@H](C(=O)N[C@H](C(=O)N[C@@H](CC(=O)O)C(N)=O)[C@@H](C)O)C(C)(C)C)NC(=O)[C@H](CC(N)=O)NC(=O)[C@@H]2CC(F)(F)CN2C(=O)[C@H](CCCNC(=N)N)NC(=O)[C@H](CCCCN)NC1=O)[C@@H](C)O [PSM-0217, Ac-Thr-Aib-Phe-[Cys-Lys-Arg-Dfp-Asn-Cys]-Tle-Thr-Asp-NH2] (Ac-T[Aib]FCKR[Pro(4,4-F2)]NC[Tle]TD-NH2; disulfide 4-9) |  |  | < 0.2 µM | 0.0126 to 0.126 µM
14 | CC(C)C[C@H](NC(=O)CC1CCN(C(=O)CN2CCN(CC(=O)O)CCN(CC(=O)O)CCN(CC(=O)O)CC2)CC1)C(=O)NC(C)(C)C(=O)N[C@@H](Cc1ccccc1)C(=O)N[C@H]1CSSC[C@@H](C(=O)N[C@H](C(=O)N[C@H](C(N)=O)[C@@H](C)O)C(C)(C)C)NC(=O)[C@H](CC(N)=O)NC(=O)C(C)(C)NC(=O)[C@H](CCCNC(=N)N)NC(=O)[C@H](CCCCN)NC1=O [PSM-0220, DOTA-Cmp-Leu-Aib-Phe-[Cys-Lys-Arg-Aib-Asn-Cys]-Tle-Thr-NH2] ({DOTA}-[X1]L[Aib]FCKR[Aib]NC[Tle]T-NH2; disulfide 5-10) | < 0.2 µM | 0.0126 to 0.126 µM |  | 
